Experimental data taken from patent US20260109674A1, “ALLOSTERIC MODULATION OF MUSCARINIC ACETYLCHOLINE RECEPTOR EFFICACY” (The University of Toledo, priority 2022, published 2026).
Structures can show the parent of a compound that is named as a salt. Where two headings read alike, the source gives them in different places. Marks after values point to notes of the source that are not given here.

Key:
[1] = biological target: T1, M1 muscarinic receptors expressed in CHO cells (Homo sapiens, UniProt P11229); assay: [3H]-arachidonic acid release screen with and without ACh and modulator; assay type: cell-based; conditions: for Ratio of response of ACh with modulator to response of ACh alone, 0.1 μM ACh / Ratio of response of ACh with modulator to response of ACh alone, 100 μM ACh / Stimulation of [3H]AA release, No ACh (fraction of stimulation above the control): 10 μM modulator, Table 1; for Modulation of ACh activity (in words): [3H]AA release; for Modulation of ACh activity (in words) / Intrinsic agonist activity (in words): modulator 10 μM; for Intrinsic agonist activity (in words): without ACh
T1 construct: expressed in transfected cells; host or cells: CHO (CHO-hM1, stably transfected)
T1 sequence (P11229 1-460): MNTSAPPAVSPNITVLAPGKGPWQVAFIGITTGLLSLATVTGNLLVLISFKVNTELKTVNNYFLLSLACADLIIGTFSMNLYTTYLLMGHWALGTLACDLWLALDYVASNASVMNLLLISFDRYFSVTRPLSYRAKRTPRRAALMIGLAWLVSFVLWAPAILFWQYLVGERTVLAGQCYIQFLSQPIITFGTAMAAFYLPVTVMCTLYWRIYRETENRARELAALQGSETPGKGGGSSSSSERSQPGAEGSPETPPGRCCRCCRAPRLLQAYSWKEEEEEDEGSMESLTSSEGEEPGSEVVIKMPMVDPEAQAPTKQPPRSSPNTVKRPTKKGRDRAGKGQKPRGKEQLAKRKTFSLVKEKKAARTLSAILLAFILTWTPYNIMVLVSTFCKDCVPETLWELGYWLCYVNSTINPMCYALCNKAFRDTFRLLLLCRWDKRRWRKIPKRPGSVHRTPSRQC
Experimental: CHO cells expressing human M1 muscarinic receptors were cultured at 37° C. in a 5% CO2 atmosphere in F12 medium supplemented with 5% fetal bovine serum, 100 units/mL penicillin, and 100 μg/mL streptomycin.
(§1) Measurement of [^3H]AA release was performed. Stably transfected CHO-hM1 or CHO-hM3 cells were seeded on 24-well plates (Greiner Bio-One GmbH, Frickenhausen, Germany) at a density of 5.0×10^4 cells/well in 0.5 ml of F-12 medium. Cells were incubated until they attached (approximately 3 h), followed by the addition of [^3H]AA to a final concentration of 0.05 μCi of [^3H]AA per well. The cells were then grown for 16 to 20 h before the assay was performed. [^3H]AA release was measured in Eagle's basal medium with 20 mM HEPES and 2 mg/ml fatty acid-free bovine serum albumin (EM-BSA). Cells were rinsed twice with EM-BSA, followed by the addition of EM-BSA media containing experimental agents and incubated for 1 h at 37° C. The assay was terminated by aspiration of the media, and the amount of [^3H]AA released was determined by liquid scintillation counting (Beckman-Coulter LS6500).
For some assays, pretreatment with phenoxybenzamine (POB) was employed, as indicated, to reduce the number of available receptors per cell. Stock POB was made up at 10 mM in ethanol and stored at −20° C. Each well was pretreated with 0.5 ml of the appropriate concentration in PBS with 1 mM CaCl2 and 1 mM MgCl2 (PBS++) for 30 min at 37° C., followed by 5 washes with PBS++. After pretreatment, the normal protocol was followed as above.
(§2) Tabulated [^3H]AA release data are represented as a fraction of maximal release in the presence of 100 μM ACh or as the fraction of release elicited by the appropriate concentration of ACh alone, as indicated dose-response curves were normalized to the maximal response of ACh without allosteric ligand. Some response curves were analyzed using the empirical four-parameter equation: […]
Disintegration per minute (DPM) values for a single compound were obtained in triplicate, and each compound was evaluated on three separate 24-well plates. The mean values for each condition from each of the three 24-well plates were used for the statistical analysis. The baseline mean was subtracted from each value, then normalized to the mean response produced by 100 μM ACh (set at 1.0). Statistical analyses were completed on the normalized values via one-way repeated measures ANOVA with Tukey's post hoc test. Statistically significant differences are noted as follows: *, p<0.05; **, p<0.01; ***, p<0.001.

[2] = biological target: T1, M1 muscarinic receptors expressed in CHO cells; assay: Full ACh dose-response curves of [3H]AA release fitted to the allosteric operational model; assay type: cell-based; conditions: for Intrinsic Efficacy-B, τB / Activation cooperativity, A-B, β / Binding cooperativity, A-B, α: allosteric operational model; for Intrinsic Efficacy-B, τB: Em set to 2.0; for Activation cooperativity, A-B, β / Binding cooperativity, A-B, α: with ACh; for Effect on ACh potency and efficacy in full ACh dose-response curves (in words): modulator 10 μM
Experimental: as §1, §2
where X is the log of the concentration of the ligand used, Y is the amount of response, C50 is the concentration of the ligand that produces 50% of the maximal effect, Top and Bottom are the top and bottom plateaus of the curve, respectively, and n is related to the Hill slope for the curve. In some cases, families of response curves were analyzed according to the allosteric operational model:
where EM is the maximal response; A is the concentration of ACh; B is the concentration of the allosteric ligand; τA and τB represent the intrinsic efficacies of A and B, respectively; KA and KB are the equilibrium dissociation constants of A and B, respectively; and α and β represent the cooperativities between A and B in terms of binding and activation, respectively. Curve-fitting was carried out with GraphPad Prism, version 5.0 or 6.0 (San Diego CA).

[3] = test system: wild-type zebrafish larvae; assay: Maximum tolerated concentration (MTC) determination in zebrafish larvae; assay type: in vivo, Danio rerio; conditions: for Maximum Tolerated Concentration: after 24-hour exposure, Table 3
Experimental: Determination of maximum tolerated concentration was completed by placing 5 days post fertilization (dpf) wild-type zebrafish larvae in a 24 well plate at 6 fish per well, and one compound concentration per well. […] Death was determined by the absence of heartbeat. Additional endpoints were used to assess toxicity at non-lethal concentrations such as startle capacity (poke stimulus), abnormalities in swimming behavior (loss of dorsoventral balance), and gross morphological deformities (bent body). […] The MTC determination was used to select three doses of each compound (low, medium, high dose) to be used in behavioral assays.

[4] = test system: wild-type zebrafish larvae; assay: General locomotor assay in zebrafish larvae (locomotor activity, repetitive behaviors); assay type: in vivo, Danio rerio; conditions: for Effect on locomotor activity, angular velocity and turn angle (in words): spontaneous swimming period
Experimental: Five days post fertilization (dpf) zebrafish larvae were exposed to a range of nonlethal concentrations of the compounds in a 24-well plate with appropriate controls. The movement of each larval zebrafish was monitored with the Noldus behavior recording system (Noldus Information Technology, Leesburg VA) and quantified using EthoVision® XT 15 software (Noldus Information Technology, Leesburg VA). The plate was immediately placed in the incubator for a 30-minute exposure period. After 30 minutes, the plate was transferred to the Noldus system and swimming behavior was recorded in 100% light for 30 minutes to measure spontaneous swimming behavior. The light was switched off for 10 minutes (dark period) and then switched on for 10 minutes (light period), which was then repeated for two additional cycles. In total, the larvae were exposed to three cycles of alternating 10-minute dark and light periods (100% darkness-to-100% light). […]
All data for exposure and the behavioral end points were analyzed by one-way ANOVA (factor: drug conc) followed by a Dunnett's multiple comparisons test for post hoc significance between drug concentration and control group. Statistically significant differences are noted as follows: *, p<0.05; **, p<0.01; ***, p<0.001.

[5] = best-fit parameter, read-out: Affinity-B, KB (converted)
[6] = Table 3, test concentration not given, N = 12

Row | Structure (SMILES) | Ratio of response of ACh with modulator to response of ACh alone, 0.1 μM ACh [1] | Ratio of response of ACh with modulator to response of ACh alone, 100 μM ACh [1] | Stimulation of [3H]AA release, No ACh (fraction of stimulation above the control) [1] | Modulation of ACh activity (in words) [1] | Intrinsic agonist activity (in words) [1] | Intrinsic Efficacy-B, τB ([2]; best-fit parameter) | Activation cooperativity, A-B, β ([2]; best-fit parameter) | Binding cooperativity, A-B, α ([2]; best-fit parameter) | Kb [2, 5] | Effect on ACh potency and efficacy in full ACh dose-response curves (in words) [2] | Maximum Tolerated Concentration [3] | Effect on locomotor activity, angular velocity and turn angle (in words) [4] | Affinity-B, KB ([2]; best-fit parameter, values given are logarithms (cf. logKA in footnote)) | Kb ([2]; read-out: affinity for M1 muscarinic receptors (KB)) | Signs of toxicity (in words) ([3]; concentrations up to 30 μM, the highest concentration tested) | Concentration with significant effects on locomotor activity and repetitive behaviors ([4]; compared with BQCA) | Angular Velocity [4, 6] | Total Distance Moved [4, 6] | Variance of Turn Angle [4, 6]
1 | CCN(CC)CCOc1ccc(CN2C(=O)C(=O)c3ccccc32)cc1 [Compound 7, 1-(4-(2-(diethylamino)ethoxy)benzyl)indoline-2,3-dione] | 0.08 ± 0.02 | 1.11 ± 0.06 | 0.02 ± 0.01 | primarily decreased potency and slightly enhanced the efficacy of ACh activity | lacked intrinsic activity at the 10 μM concentration | 0.0317 ± 0.0205 | 0.991 ± 0.120 | 0.180 ± 0.0855 | 631 nM | decreased ACh potency with little impact on ACh efficacy | 10 µM | did not significantly alter locomotor activity, angular velocity, and turn angle |  |  |  |  |  |  | 
2 | COc1c(I)cc(CN2C(=O)C(=O)c3ccccc32)cc1I [Compound 8a, 1-(3,5-diiodo-4-methoxybenzyl)indoline-2,3-dione] | 2.64 ± 0.10 | 1.62 ± 0.06 | 0.24 ± 0.04 | significant enhancement of ACh activity | lacked intrinsic activity at the 10 μM concentration | 0.174 ± 0.0289 | 3.26 ± 0.431 | 0.689 ± 0.241 |  | dramatically enhanced ACh efficacy | 30 µM |  | −6.26 ± 0.152 | 589 nM | did not produce any signs of toxicity | 1 µM |  |  | 
3 | COc1c(Br)cc(CN2C(=O)C(=O)c3ccccc32)cc1Br [Compound 8c, 1-(3,5-dibromo-4-methoxybenzyl)indoline-2,3-dione] | 2.15 ± 0.05 | 1.58 ± 0.01 | 0.23 ± 0.00 |  |  | 0.328 ± 0.0555 | 3.89 ± 0.610 | 0.980 ± 0.388 | 2950 nM | dramatically enhanced ACh efficacy | 30 µM |  |  |  |  |  |  |  | 
4 | COc1cccc(CN2C(=O)C(=O)c3ccccc32)c1 [Compound 8j, 1-(3-methoxybenzyl)indoline-2,3-dione] | 1.06 ± 0.15 | 0.96 ± 0.10 | 0.02 ± 0.02 |  |  |  |  |  |  | enhances ACh potency |  | significantly decreased locomotor activity and increased angular velocity and absolute turn angle |  |  |  |  |  |  | 
5 | CCN(CC)CCOc1c(Br)cc(CN2C(=O)C(=O)c3ccccc32)cc1Br [Compound 8l, 1-(3,5-dibromo-4-(2-(diethylamino)ethoxy)benzyl)indoline-2,3-dione hydrochloride] | 0.19 ± 0.06 | 0.87 ± 0.06 | 0.04 ± 0.00 | results only in a decrease in ACh activity |  |  |  |  |  | decreased ACh potency with little impact on ACh efficacy | 10 µM |  |  |  |  |  | 184.7 ± 17.0*** % of control | 33.5 ± 4.4** % of control | 166.1 ± 12.5*** % of control
